Legend:
mTOR = target: T1, mTOR (Homo sapiens, UniProt P42345); assay: Biochemical assay for m-TOR by TR-FRET; conditions: 8 μM ATP, 400 nM GFP-4EBP1, 0.5 nM mTOR
T1 construct: purchased Invitrogen Corporation (Carlsbad/CA, USA) PV4753
How it was run: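 TR-FRET read-out: Tb-labelled anti-p4EBP1 pThr46 antibody (0.5 nM), added in EDTA to stop the reaction, detects phosphorylated GFP-4EBP1 after 15 min. Kinase step used 0.5 nM mTOR, 400 nM substrate, 8 μM ATP, MnCl2-containing HEPES buffer pH 7.5, room temperature.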

PI3K beta = target: T2, PI3K beta (Homo sapiens, UniProt P42338); assay: PI3K beta kinase assay (Kinase-Glo luminescence); type: biochemical
T2 construct: for the full-length p110-b subunit are generated and fused by overlapping PCR; p85(iSH2) fusion partner (see partner chain) (N); His tag (C); made in house; host or cells: baculovirus; Tn5 (Trichoplusia ni) or TiniPro insect cells
How it was run: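 Kinase-Glo luminescence after a 60 min room-temperature reaction gives remaining ATP. The reaction holds 25 nM p85(iSH2)-p110β full-length His-tagged construct, 1 μM ATP, 10 μg/mL PI, and eight compound concentrations at 0.45% DMSO final. IC50 values come from a four-parameter logistic fit.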

PI3K alpha = target: T3, PI3K alpha (Homo sapiens, UniProt P42336); assay: PI3K alpha kinase assay (Kinase-Glo luminescence); type: biochemical
T3 construct: p85(iSH2) fusion partner (see partner chain) (N); His tag (C); made in house; host or cells: baculovirus; Tn5 (Trichoplusia ni) or TiniPro insect cells
How it was run: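 PI3K alpha at 10 nM with 1 μM ATP and 10 μg/mL phosphatidylinositol in 10 mM TRIS pH 7.5, 3 mM MgCl2, 50 mM NaCl, 0.05% CHAPS, 1 mM DTT, 60 min at room temperature. Remaining ATP read by Kinase-Glo luminescence. IC50 by 4-parameter fit over 8 concentrations.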

T1 sequence (P42345 1360-2549 limits assumed): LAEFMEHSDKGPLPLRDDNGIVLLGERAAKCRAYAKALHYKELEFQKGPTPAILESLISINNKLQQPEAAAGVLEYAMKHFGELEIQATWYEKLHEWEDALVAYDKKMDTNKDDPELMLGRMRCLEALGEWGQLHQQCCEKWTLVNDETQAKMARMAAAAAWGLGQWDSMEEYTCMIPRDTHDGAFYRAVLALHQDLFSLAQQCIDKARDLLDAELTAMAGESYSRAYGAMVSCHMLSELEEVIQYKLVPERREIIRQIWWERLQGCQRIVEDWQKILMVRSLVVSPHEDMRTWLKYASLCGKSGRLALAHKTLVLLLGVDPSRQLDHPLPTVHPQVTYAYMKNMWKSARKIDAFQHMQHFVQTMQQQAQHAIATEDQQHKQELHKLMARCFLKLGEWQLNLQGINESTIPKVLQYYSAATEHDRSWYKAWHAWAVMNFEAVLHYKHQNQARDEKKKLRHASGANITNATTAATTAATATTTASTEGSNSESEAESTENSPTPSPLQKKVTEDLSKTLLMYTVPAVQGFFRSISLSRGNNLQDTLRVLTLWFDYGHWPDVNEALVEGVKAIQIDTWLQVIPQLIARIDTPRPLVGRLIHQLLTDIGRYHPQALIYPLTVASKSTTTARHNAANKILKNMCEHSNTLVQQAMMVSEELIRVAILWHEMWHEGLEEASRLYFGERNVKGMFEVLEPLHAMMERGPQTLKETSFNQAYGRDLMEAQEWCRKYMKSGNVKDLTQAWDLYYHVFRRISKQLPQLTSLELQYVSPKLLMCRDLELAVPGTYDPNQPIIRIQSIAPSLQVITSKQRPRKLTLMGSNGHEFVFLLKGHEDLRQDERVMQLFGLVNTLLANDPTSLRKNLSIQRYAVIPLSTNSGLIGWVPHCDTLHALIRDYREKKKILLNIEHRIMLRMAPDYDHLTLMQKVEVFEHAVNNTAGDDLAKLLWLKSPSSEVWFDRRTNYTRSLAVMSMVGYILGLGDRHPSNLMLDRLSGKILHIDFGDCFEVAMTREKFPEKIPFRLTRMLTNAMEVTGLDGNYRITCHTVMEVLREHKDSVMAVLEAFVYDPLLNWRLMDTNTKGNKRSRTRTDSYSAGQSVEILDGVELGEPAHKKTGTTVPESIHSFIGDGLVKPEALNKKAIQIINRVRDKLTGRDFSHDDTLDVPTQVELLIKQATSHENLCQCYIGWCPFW
T3 sequence (P42336 with tags, fused parts or gaps limits assumed): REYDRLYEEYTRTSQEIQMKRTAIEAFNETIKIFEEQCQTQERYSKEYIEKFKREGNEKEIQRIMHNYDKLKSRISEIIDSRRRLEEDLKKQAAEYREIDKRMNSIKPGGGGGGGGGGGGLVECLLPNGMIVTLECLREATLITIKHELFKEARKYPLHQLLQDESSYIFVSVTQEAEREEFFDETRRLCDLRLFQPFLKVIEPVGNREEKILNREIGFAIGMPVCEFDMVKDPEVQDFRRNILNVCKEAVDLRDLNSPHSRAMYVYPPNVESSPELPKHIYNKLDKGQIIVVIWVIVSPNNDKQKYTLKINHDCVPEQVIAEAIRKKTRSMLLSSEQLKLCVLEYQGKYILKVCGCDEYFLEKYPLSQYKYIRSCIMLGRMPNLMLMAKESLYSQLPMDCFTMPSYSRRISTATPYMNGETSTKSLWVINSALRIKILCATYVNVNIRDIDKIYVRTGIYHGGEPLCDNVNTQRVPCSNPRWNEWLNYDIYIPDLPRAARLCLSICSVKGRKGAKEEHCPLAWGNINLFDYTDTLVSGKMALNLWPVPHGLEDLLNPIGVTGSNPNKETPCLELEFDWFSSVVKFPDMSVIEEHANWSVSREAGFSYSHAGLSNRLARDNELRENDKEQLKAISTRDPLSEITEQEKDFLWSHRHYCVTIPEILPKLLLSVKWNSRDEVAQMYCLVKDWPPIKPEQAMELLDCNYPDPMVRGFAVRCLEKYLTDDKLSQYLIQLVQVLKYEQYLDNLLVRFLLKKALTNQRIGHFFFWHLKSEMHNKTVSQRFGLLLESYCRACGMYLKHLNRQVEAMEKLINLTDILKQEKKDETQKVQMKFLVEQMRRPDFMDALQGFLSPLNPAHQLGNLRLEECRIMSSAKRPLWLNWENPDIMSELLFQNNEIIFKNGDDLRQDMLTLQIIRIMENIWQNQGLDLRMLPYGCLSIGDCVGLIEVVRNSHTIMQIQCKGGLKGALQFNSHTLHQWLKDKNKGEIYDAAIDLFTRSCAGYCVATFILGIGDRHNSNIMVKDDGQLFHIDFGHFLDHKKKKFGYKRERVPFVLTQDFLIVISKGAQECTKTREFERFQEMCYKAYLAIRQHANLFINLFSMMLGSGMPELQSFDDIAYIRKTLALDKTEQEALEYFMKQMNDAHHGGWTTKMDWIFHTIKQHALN
T2 sequence (P42338 with tags, fused parts or gaps limits assumed): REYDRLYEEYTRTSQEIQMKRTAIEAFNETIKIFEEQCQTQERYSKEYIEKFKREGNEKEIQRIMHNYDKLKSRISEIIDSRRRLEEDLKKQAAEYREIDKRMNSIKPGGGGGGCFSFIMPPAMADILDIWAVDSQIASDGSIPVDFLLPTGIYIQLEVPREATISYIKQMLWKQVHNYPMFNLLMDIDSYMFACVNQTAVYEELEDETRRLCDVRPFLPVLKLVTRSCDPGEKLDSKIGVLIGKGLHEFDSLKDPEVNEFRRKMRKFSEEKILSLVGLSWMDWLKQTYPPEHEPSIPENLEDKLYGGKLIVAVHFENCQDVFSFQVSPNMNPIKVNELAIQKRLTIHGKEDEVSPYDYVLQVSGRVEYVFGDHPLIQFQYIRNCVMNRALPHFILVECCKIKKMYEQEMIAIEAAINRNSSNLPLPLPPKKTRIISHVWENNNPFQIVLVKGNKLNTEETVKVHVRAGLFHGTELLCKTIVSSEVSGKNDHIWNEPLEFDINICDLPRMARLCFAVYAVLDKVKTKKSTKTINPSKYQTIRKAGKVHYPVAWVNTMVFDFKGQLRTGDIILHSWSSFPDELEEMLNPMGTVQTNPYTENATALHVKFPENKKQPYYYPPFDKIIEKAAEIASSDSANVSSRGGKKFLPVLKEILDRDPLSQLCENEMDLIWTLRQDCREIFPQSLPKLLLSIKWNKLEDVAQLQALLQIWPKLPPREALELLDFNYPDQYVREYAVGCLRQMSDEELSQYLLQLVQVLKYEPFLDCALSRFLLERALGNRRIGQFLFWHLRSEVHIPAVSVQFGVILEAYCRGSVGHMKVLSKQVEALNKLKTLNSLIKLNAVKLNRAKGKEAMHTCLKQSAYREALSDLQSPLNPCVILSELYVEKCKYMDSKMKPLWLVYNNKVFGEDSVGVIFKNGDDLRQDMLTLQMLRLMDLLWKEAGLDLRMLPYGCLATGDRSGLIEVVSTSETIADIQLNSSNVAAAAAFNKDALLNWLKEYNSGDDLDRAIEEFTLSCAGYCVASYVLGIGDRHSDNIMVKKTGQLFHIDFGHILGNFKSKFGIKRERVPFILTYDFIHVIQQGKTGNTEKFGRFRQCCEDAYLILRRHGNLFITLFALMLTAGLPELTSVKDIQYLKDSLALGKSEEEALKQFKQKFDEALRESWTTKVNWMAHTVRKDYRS

COc1ccc(-c2ccc3ncc4c(c3n2)n(-c2cn(C)nc2C)c(=O)n4C)cc1OC [Example 250, 8-(3,4-Dimethoxy-phenyl)-1-(1,3-dimethyl-1H-pyrazol-4-yl)-3-methyl-1,3-dihydro-1,3,5,9-tetraaza-cyclopenta[a]naphthalen-2-one]
IC50 (mTOR): 135 nM | IC50 (PI3K beta): 68 nM | IC50 (PI3K alpha): 5 nM

Source: patent US20140005163A1 (NOVARTIS AG, priority 2010, published 2014)
